Columns and labels:
GluN1/GluN2A receptors = GluN1/GluN2A receptors (Homo sapiens, UniProt Q05586+Q12879); experiment: Screening of FDA-approved NMDAR antagonists, TEVC oocyte recordings, wild type; format: cell-based
[1] = molecular target: T1, GluN1/GluN2A-L812M receptors (Homo sapiens, UniProt Q05586+Q12879, L812M); format: cell-based
[2] = molecular target: GluN1/GluN2A-N615K receptors (Homo sapiens, UniProt Q05586+Q12879, N615K); format: cell-based
[3] = molecular target: T1, GluN1/GluN2A-L812M receptors; experiment: Agonist potency, TEVC recordings from Xenopus laevis oocytes, L812M mutant; format: cell-based
seizures of the proband = experiment: Antiepileptic treatment of the proband; format: in vivo, human
[4] = system: animal models of epilepsy; conditions: wide range of animal models of epilepsy; cited from earlier work
[5] = used in children; cited from earlier work
[6] = read-out: percent maximal inhibition

## NC12CC3CC(CC(C3)C1)C2 [Amantadine]
GluN1/GluN2A receptors
  IC50: 110 ± 11 µM
GluN1/GluN2A receptors; [6]
  inhibition at 1000 µM: 94%
[1]
  IC50: 113 ± 5.1 µM
[1]; [6]
  inhibition at 1000 µM: 88%
[2]
  IC50: 458 ± 25 µM
[2]; [6]
  inhibition at 1000 µM: 76%

## COc1ccc2c(c1)[C@]13CCCC[C@@H]1[C@H](C2)N(C)CC3 [Dextromethorphan]
GluN1/GluN2A receptors; [6]
  inhibition at 300 µM: 88%
[1]
  IC50: 33 ± 4.8 µM
[1]; [6]
  inhibition at 300 µM: 91%
[2]
  IC50: 9 ± 1.3 µM
[2]; N615K compared with wild type
  enhanced potency on N615K-containing NMDARs in comparison to wild-type NMDARs: twofold
[2]; [6]
  inhibition at 300 µM: 92%

## CN1CC[C@@]23CCCC[C@@H]2[C@@H]1Cc1ccc(O)cc13 [Dextrorphan]
GluN1/GluN2A receptors
  IC50: 1.9 ± 0.3 µM
GluN1/GluN2A receptors; [6]
  inhibition at 30 µM: 92%
[1]
  IC50: 6.1 ± 1.3 µM
[1]; [6]
  inhibition at 30 µM: 85%
[2]
  IC50: 0.34 ± 0.06 µM
[2]; [6]
  inhibition at 30 µM: 96%

## NCC(=O)O [Glycine]
[3]; L812M compared with wild type
  reduction in EC50 (increased potency), GluN2A-L812M vs wild type: eightfold
[3]; read-out: Glycine EC50, L812M, in the presence of 100 μmol/L glutamate, -40 mV
  EC50: 0.14 ± 0.01 µM

## CC12CC3CC(C)(C1)CC(N)(C3)C2 [Memantine]
GluN1/GluN2A receptors; [6]
  inhibition at 100 µM: 89%
[1]; [6]
  inhibition at 100 µM: 87%
[2]; [6]
  inhibition at 100 µM: 69%
Seizures of the proband; memantine treatment
  cognitive ability: remained unchanged
Seizures of the proband; postmemantine EEG, wakefulness and sleep
  interictal EEG after treatment: no asymmetries or epileptiform discharges
Seizures of the proband; upon memantine treatment
  myoclonic jerks: ceased
Seizures of the proband; ~0.5 mg/kg per day
  side effects: without side effects
[4]
  anticonvulsant effects: anticonvulsant effects
[5]
  toxicity in children: without toxicity

— publication PMC4019449 (Annals of Clinical and Translational Neurology, 2014)
